We go through ten compounds from patent US20130324597A1, “PHARMACEUTICAL COMPOSITION COMPRISING TRANS-[…] AND ITS USE IN THE TREATMENT OF INFECTIONS” (priority 2010, published 2013).

One data set relates to MRSA. Particulars: bibliographic data on the main compound; cited from earlier work.
Another data set relates to Pseudomonas. Nature of the data set: MIC in Mueller Hinton gelose. The class given is cell-based. The source says:
(§1) Following a method allowing the dissolution of the active blend in a Mueller Hinton gelose the following MIC has been measured with pure trans-cinnamaldehyde (CNM) and with the active blends 1 to 8 disclosed in table 1.
(§2) Following a method allowing the dissolution of the active blend in a Mueller Hinton gelose the MIC has been measured with pure components of the active blends 1 to 9.

Another data set relates to E. aerogenes. Nature of the data set: MIC in Mueller Hinton gelose. The class given is cell-based. Conditions: Enterobacter aerogenes 09004.
Source text: as §1, §2

Another data set relates to Staphylococcus. Nature of the data set: MIC in Mueller Hinton gelose. The class given is cell-based.
Source text: as §1, §2

A further data set deals with E. faecium. Nature of the data set: MIC in Mueller Hinton gelose. It is filed as cell-based, Enterococcus faecium.
Source text: as §1, §2

Another data set concerns Enterococcus. Kind of data set: MIC in Mueller Hinton gelose. It is filed as cell-based, Enterococcus sp.
Source text: as §1, §2

The test system of data set [1] is E. coli. Kind of data set: MIC in Mueller Hinton gelose. The class given is cell-based, Escherichia coli.
Source text: as §1, §2

The test system of the next data set is Enterobacteria. Nature of the data set: Killing-curves, log reduction time. It is filed as cell-based. Conditions: at MIC × 4. The source says: (§3) Results are expressed in minutes necessary to reduce bacterial counts by 1 log.
For another data set, the system named is All strains (60 strains). Kind of data set: Killing-curves, log reduction time. It is filed as cell-based. Conditions: at MIC × 4.
Source text: as §3

Another data set relates to Other gram−. Kind of data set: Killing-curves, log reduction time. It is filed as cell-based. Particulars: at MIC × 4.
Source text: as §3

The test system of a further data set is Cocci G+. Kind of data set: Killing-curves, log reduction time. It is filed as cell-based. Particulars: at MIC × 4.
Source text: as §3

A further data set concerns P. aeruginosa. Kind of data set: MIC in Mueller Hinton gelose. It is filed as cell-based, Pseudomonas aeruginosa.
Source text: as §1, §2

The next data set has as its system all the strains. Kind of data set: MIC of pure components, all strains of Table 9. It is filed as cell-based. Particulars: strains of Table 9, tested concentrations.
Source text: as §2

The subject of the next data set is Enterobacteriaceae. Nature of the data set: MIC of pure components in Mueller Hinton gelose. Conditions: Enterobacteriaceae n = 13. The class given is cell-based.
Source text: as §2

For a further data set, the system named is Other Gram - rods. Nature of the data set: MIC of pure components in Mueller Hinton gelose. The class given is cell-based. Conditions: Other Gram - rods n = 15.
Source text: as §2

Data set [2] deals with Staphylococcus And Enterococcus. Kind of data set: MIC of pure components in Mueller Hinton gelose. It is filed as cell-based. Conditions: Staphylococcus And Enterococcus n = 14.
Source text: as §2

The test system of the next data set is A baumanii. Kind of data set: MIC in Mueller Hinton gelose. It is filed as cell-based, Acinetobacter baumanii. Particulars: A baumanii 09010.
Source text: as §1, §2

Data set [3] has as its system E. coli. Nature of the data set: Treatment of infected mice. The class given is in vivo. Conditions: E. coli challenge, 7 days observation; reference antibiotic, dose not given. The protocol:
(§4) The test is performed on Balb/c mice aged 10 to 12 weeks.
(§5) They are infected by intraperitoneal injection of 4.10^7 Staphylococcus aureus, methicilline resistant, in a growing phase or with E. coli.

The next data set relates to VIH. Nature of the data set: Activity on VIH (survival of lymphoid cells T4, P24 dosage). It is filed as cell-based. On the set-up: unit of the concentration uncertain.
The subject of data set [4] is Staphylococcus aureus, methicilline resistant. Kind of data set: Treatment of infected mice. The class given is in vivo, Balb/c mice. Particulars: MRSA challenge, 10 days observation; reference antibiotic, dose not given. The protocol: as §4, §5
Where [5] appears, read: concentration 0.0005 (unit uncertain).
The mark [6] stands for this setting: concentration 0.005 (unit uncertain).
[7] abbreviates: concentration 0.05 (unit uncertain).
[8] abbreviates: concentration 0.1 (unit uncertain).
Where [9] appears, read: concentration 0.5 (unit uncertain).
Setting [10] is: concentration 5 (unit uncertain).

A value given as a limit tells only on which side of the number the result lay.

Take `O=C/C=C/c1ccccc1` [CNM, trans-cinnamaldehyde]: the “elimination, bibliographic data” value with MRSA is listed as 1.7 h. For the same compound, the MIC in the data set with Pseudomonas (Pseudomonas 8127) is 0.063%; in the data set with Pseudomonas (Pseudomonas 8128), 0.063%; against Pseudomonas (Pseudomonas 8129*), 0.063%; against Pseudomonas (Pseudomonas 8130*), 0.125%; in the data set with Pseudomonas (Pseudomonas 8131*), 0.125%; against Pseudomonas (Pseudomonas 8132*), 0.125%. Further, the MIC against Pseudomonas (Pseudomonas 8133) was found to be 0.125%; against Pseudomonas (Pseudomonas 8134), 0.016%; against Pseudomonas (Pseudomonas 8135*), 0.03%; in the data set with Pseudomonas (Pseudomonas 8136*), 0.016%; with E. aerogenes, 0.063%; with Staphylococcus (Staphylococcus 8143) it was 0.031%. Moreover, the MIC in the data set on Staphylococcus (Staphylococcus 8146) is 0.031%; in the data set on Staphylococcus (Staphylococcus 8147), 0.031%; against Staphylococcus (Staphylococcus 8148) it was 0.031%; against Staphylococcus (Staphylococcus 8149), 0.016%; in the data set with Staphylococcus (Staphylococcus 8237), 0.008%; with Staphylococcus (Staphylococcus 8238), 0.031%. The MIC against Staphylococcus (Staphylococcus 8239), with Staphylococcus (Staphylococcus 8240), against Staphylococcus (Staphylococcus 8241), against E. faecium (Enterococcus faecium 09001), against E. faecium (Enterococcus faecium 09002) and against Enterococcus (Enterococcus 8152) was 0.031% in each case. Besides, the MIC against Enterococcus (Enterococcus 8153) is recorded as 0.031%; against E. coli [1] (E. coli 8137), 0.016%; in the data set with E. coli [1] (E. coli 8138), 0.016%; against E. coli [1] (E. coli 8141), 0.016%; against E. coli [1] (E. coli 8142) it was 0.016%; with E. coli [1] (E. coli 8150), 0.031%. For the same compound, the MIC is 0.031% against E. coli [1] (E. coli 8151); 0.031% with E. coli [1] (E. coli 8154); 0.031% in the data set with E. coli [1] (E. coli 8155); 0.031% with E. coli [1] (E. coli 8156); 0.031% against E. coli [1] (E. coli 8157); 0.063% with E. coli [1] (E. coli 09003). Moreover, the MIC with E. coli [1] (E. coli ATCC 25922) amounted to 0.015%; in the data set on P. aeruginosa (PS aeruginosa 09007) it was 0.063%; in the data set with P. aeruginosa (PS aeruginosa ATCC), 0.031%; against P. aeruginosa (Ps aeruginosa 09008), 0.016%; in the data set on A baumanii, 0.016%. In addition, the “Mean Log reduction time” value amounted to 72 min in the data set with Enterobacteria, 111 min with All strains (60 strains), 95 min with Other gram− and 195 min in the data set with Cocci G+. Also, in the data set with all the strains, the “activity / spectrum in words” value is “highly effective on all the strains”. For the same compound, the MIC 50 in the data set with Enterobacteriaceae came to 150 µg/mL; with Other Gram - rods, 600 µg/mL; in data set [2], 150 µg/mL. Besides, the MIC 90 in the data set on Enterobacteriaceae turned out to be 600 µg/mL; in the data set on Other Gram - rods it was 1250 µg/mL; in data set [2] it was 300 µg/mL.
As for `C=C1CC/C=C(\C)CC[C@@H]2[C@@H]1CC2(C)C` [Caryophyllene, beta-caryophyllene], the “activity / spectrum in words” value in the data set with all the strains is reported as “narrow”. In the data set on Enterobacteriaceae, the MIC 50 was over 10000 µg/mL, the MIC 90 is over 10000 µg/mL and the MIC Range was over 10000 µg/mL. In the data set with Other Gram - rods, the MIC 50 is over 10000 µg/mL, the MIC 90 was over 10000 µg/mL and the MIC Range was over 10000 µg/mL. Further, in data set [2], the MIC 50 was over 10000 µg/mL and the MIC 90 is over 10000 µg/mL.
Regarding `CC(=O)OCC=Cc1ccccc1` [Cinnamyl acetate, cinnamyl acetate], the “activity / spectrum in words” value with all the strains is “intermediate”. In the data set on Enterobacteriaceae, the MIC 50 is over 10000 µg/mL, the MIC 90 was over 10000 µg/mL and the MIC Range was over 10000 µg/mL. Moreover, in the data set on Other Gram - rods, the MIC 50 is over 10000 µg/mL and the MIC 90 was over 10000 µg/mL. In [2], the MIC 50 is over 10000 µg/mL and the MIC 90 was over 10000 µg/mL.
For the compound `CC1(C)S[C@@H]2[C@H](NC(=O)[C@H](N)c3ccc(O)cc3)C(=O)N2[C@H]1C(=O)O` [Amoxicillin], in the data set on E. coli [3], the “% survival” value is listed as 100%; the Final score came to 6; the “Final score, % vs placebo” value is reported as 10.70%; the Total health score is recorded as 678. In the data set on E. coli [3], the “Total health score, % vs placebo” value is recorded as 38.93%; the Total weight amounted to 849; the “Total weight, % vs placebo” value is on record as 23.58%.
On to `Cc1cn([C@H]2C[C@H](N=[N+]=[N-])[C@@H](CO)O2)c(=O)[nH]c1=O` [AZT], for which the “% Survival (lymphoid cells T4)” value worked out at 10.0% with VIH (setting [5]); 7.0% in the data set on VIH (setting [6]); 36.0% in the data set with VIH (setting [7]); 86.0% with VIH (setting [8]); 97.8% in the data set with VIH (setting [9]); 108.7% with VIH (setting [10]). Besides, the “Dosage P24 (% inhibition vs T+ of the plate)” value in the data set with VIH (setting [5]) came to 39%; in the data set on VIH (setting [6]) it was 48%; with VIH (setting [7]) it was 80%; in the data set on VIH (setting [8]) it was 99%; in the data set with VIH (setting [9]) it was 100%; in the data set on VIH (setting [10]) it was 100%.
`CC12CCC(CC1)C(C)(C)O2` [Cineole, cineole]: the MIC Range (in the data set with Enterobacteriaceae; in the data set on Other Gram - rods; in [2]) was over 10000 µg/mL throughout.
Regarding `CN[C@H](CC(C)C)C(=O)N[C@H]1C(=O)N[C@@H](CC(N)=O)C(=O)N[C@H]2C(=O)N[C@H]3C(=O)N[C@H](C(=O)N[C@H](C(=O)O)c4cc(O)cc(O)c4-c4cc3ccc4O)[C@H](O)c3ccc(c(Cl)c3)Oc3cc2cc(c3O[C@@H]2O[C@H](CO)[C@@H](O)[C@H](O)[C@H]2O[C@H]2C[C@](C)(N)[C@H](O)[C@H](C)O2)Oc2ccc(cc2Cl)[C@H]1O` [Vancomicin], in [4], the “% survival” value is listed as 100%; the Final score came out at 10; the “Final score, % vs placebo” value stood at 42.86%; the Total weight is 1110. In addition, the “Total weight, % vs placebo” value in data set [4] amounted to 0.63%.
Turning to `C=CC(C)(O)CCC=C(C)C` (centres unmarked) [Linalool, linalool], in the data set with all the strains, the “activity / spectrum in words” value was “wide”. Also, the MIC 50 was 2500 µg/mL with Enterobacteriaceae, over 10000 µg/mL in the data set with Other Gram - rods and 2500 µg/mL in [2]. Also, the MIC 90 was 10000 µg/mL in the data set on Enterobacteriaceae, over 10000 µg/mL with Other Gram - rods and 10000 µg/mL in data set [2].
For the compound `O=C(OCc1ccccc1)c1ccccc1` [Benzyl benzoate, benzyl benzoate], the MIC Range (in the data set with Enterobacteriaceae; with Other Gram - rods; in data set [2]) was over 10000 µg/mL each time.
As for `COc1ccccc1/C=C/C=O` [Trans-methoxycinnamaldehyde, trans-2-methoxycinnamaldehyde], the MIC Range (in the data set on Enterobacteriaceae; in the data set on Other Gram - rods; in [2]) was over 10000 µg/mL each time.
